Measured values reported in patent publication US5445941A, “Method for screening anti-osteoporosis agents” (Eli Lilly and Company, priority 1993, dated 1995).
“Also recorded” adds a separate entry of the source. Structures can show the parent of a compound that is named as a salt. Where two headings read alike, the source gives them in different places.

Columns and labels:
TGFβ-3 promoter [1] = experiment: Dose response of TGFβ-3 promoter (pB-301) CAT induction in MG63 cells with pRSVER; conditions: for CAT activity: 24 h, vehicle 0.85
Experimental: For each group of twelve cultures, the particular estrogen or antiestrogen compound was tested in replicate cultures at […], varying in tenfold increments from 10^-9 M to 10^-5 M, as well as one set of replicate cultures treated with vehicle only (for a total of twelve cultures per experimental treatment). Hormones were dissolved in ethanol and applied to the cultures in media as described above. The four estrogens and antiestrogens tested were:
a. 17β-estradiol (Sigma Chemical Corp., St. Louis, Mo.);

uterotropic activity = conditions: ovariectomized rats; cited from earlier work
TGFβ-3 promoter [2] = experiment: Comparative induction of reporter gene from TGFβ-3 promoter (pB-301, pRSVER, MG63) by raloxifene and related compounds; type: cell-based, human; conditions: for reporter gene expression: 0 M 0.61; for induction of reporter gene expression (in words): MG63 cells
[3] = system: estrogen responsive elements; conditions: in vitro; cited from earlier work
[4] = cited from earlier work; for bone density (in words): breast cancer patients
[5] = system: TGFβ secretion by human fetal fibroblasts; conditions: absence of estrogen receptor; cited from earlier work
TGFβ-3 promoter [6] = experiment: CAT reporter expression, TGFβ-3 promoter (pB-499), MG63 cells cotransfected with pRSVER
Experimental: (§1) Co-transfection experiments were performed in MG63 (human osteosarcoma) cells, using the ProFection Mammalian Transfection System (Promega). […] The cells were then refed with fresh 3:1 media containing 10% csFBS. Compounds to be evaluated for their ability to modulate reporter gene expression were added at the appropriate times and assayed as described below.
(§2) Cultures of MG63 cells were transiently co-transfected with pRSVER plasmid and either phTG12, pTGF-1, or pB2-499 using the ProFection system (Promega). For each transfected cell culture, DNA-containing calcium phosphate precipitates were added dropwise to each culture dish and mixed thoroughly in the media. The pH of the media was carefully maintained between pH 7.2 and pH 7.4. Transfected cell cultures were then incubated overnight in a 5% CO2 atmosphere at 37° C. For all cultures, the precipitate was removed after overnight incubation by aspirating the media from the culture dishes, followed by rinsing each dish twice with D-PBS. For each cotransfected cell line, the buffer was replaced with 10 ml fresh medium containing 10% csFBS and one of the following compositions:
(§3) a. 10 μl ethanol (hormone vehicle)=control;
(§4) b. 10 μl 17β-estradiol (Sigma) ("estradiol") at a concentration of 10^-4 M in ethanol;
(§5) d. 10 μl Tamoxifen (Sigma) at a concentration of 10^-4 M in ethanol.
(§6) After 24 h incubation with these hormonal preparations (or the vehicle control), cells were washed twice with D-PBS. The cells were then scraped from the culture dishes using a rubber policeman and 1 ml of D-PBS. Cells were collected by centrifugation at 8,000 rpm for 2 minutes in a tabletop centrifuge (MicroMax Model, IEC, Newark, N.Y.). The supernatant was removed and the cell pellets were resuspended in 150 μL of a 0.25M Tris-HCl solution (pH 7.8). Cells were lysed by three cycles of freezing in a dry ice/ethanol bath and thawing in a water bath at 37° C. water bath (for 3 minutes each cycle). Lysed cell preparations were centrifuged at 15,000 rpm for 5 minutes at 4° C. to remove cell debris. Supernatants containing the soluble cell lysate were transferred to a new set of tubes for assaying chloramphenicol acetyltransferase (CAT) activity.
(§7) Before performing CAT assays on such cell lysates, the protein content of each lysate was first determined using a commercially-available assay (BioRad Laboratories, Richmond, Calif.). […]

TGFβ-1 = conditions: three months of treatment; cited from earlier work
TGFβ-2 promoter = experiment: CAT reporter expression, TGFβ-2 promoter (pTGF-1), MG63 cells cotransfected with pRSVER
Experimental: as §1, §2, §3, §4, §5, §6, §7

TGFβ-1 promoter = experiment: CAT reporter expression, TGFβ-1 promoter (phTG12), MG63 cells cotransfected with pRSVER
Experimental: as §1, §2, §3, §4, §5, §6
Before performing CAT assays on such cell lysates, the protein content of each lysate was first determined using a commercially-available assay (BioRad Laboratories, Richmond, Calif.). An amount of each cell lysate containing 100 μg total protein was then mixed with CAT assay buffer (0.4M Tris-HCl (pH 7.8)/ 0.5 mM acetyl-CoA (Boehringer Mannheim)/ 0.1 μCi D-threo-(dichloroacetyl-1,2-[^14 C]-chloramphenicol) for 15 hours. After this incubation, reactions were stopped by vigorously extracting the reaction mixture with 900 μL ethyl acetate. The organic and aqueous phases were separated by brief centrifugation at 14,000 rpm for 1 minute, and approximately 800 μL of the organic phase was transferred to a new set of tubes. Ethyl acetate was evaporated to concentrate the CAT-catalyzed reaction products.
Acetylated and unacetylated chloramphenicol species were resolved by thin layer chromatography using a mixture of 95:5 (v/v) chloroform:methanol as the ascending buffer.

TGFβ-2 mRNA = conditions: T-47D and MDA-MB-231; cited from earlier work
[7] = system: human endometrial cancer cell line (HEC-50); conditions: cited from earlier work
[8] = system: mesenchymal cells and epithelial cells; fibroblasts, macrophages and smooth muscle cells; conditions: cited from earlier work
[9] = system: osteoblasts and osteoclasts; conditions: cited from earlier work
[10] = system: human endometrial cancer cell line (Ishikawa); conditions: cited from earlier work
[11] = system: osteoblast enriched bone cell cultures; conditions: relative to TGFβ-1; cited from earlier work
[12] = Homo sapiens, MG-63, 24 h, read-out: Fold Ind.

Molecule: CCCCN(C)C(=O)CCCCCCCCCC[C@@H]1Cc2cc(O)ccc2[C@H]2CC[C@]3(C)[C@@H](O)CC[C@H]3[C@H]12 [ICI]
- CAT activity (TGFβ-3 promoter [1]; 10^-5 M): 6.5
- CAT activity (TGFβ-3 promoter [1]; 10^-6 M): 15.2
- CAT activity (TGFβ-3 promoter [1]; 10^-7 M): 10.9
- CAT activity (TGFβ-3 promoter [1]; 10^-8 M): 0.88
- CAT activity (TGFβ-3 promoter [1]; 10^-9 M): 0.89
- EC50 (TGFβ-3 promoter [1]; Homo sapiens, MG-63, 24 h, read-out: ED50): 100 nM
- TGFβ-3 promoter activation (in words) (TGFβ-3 promoter [1]; MG63 cells): much less active at high concentrations (10^-5 M)

Molecule: O=C(c1ccc(O)cc1)c1sc2ccccc2c1-c1ccccc1 [LY81099, p-hydroxyphenyl 3-phenylbenzo[B]thien-2-yl ketone]
- in vivo uterotropic activity (in words) (uterotropic activity): uterotropic
- reporter gene expression (TGFβ-3 promoter [2]; 10^-5 M): 2.3
- reporter gene expression (TGFβ-3 promoter [2]; 10^-6 M): 0.9
- reporter gene expression (TGFβ-3 promoter [2]; 10^-7 M): 0.7
- reporter gene expression (TGFβ-3 promoter [2]; 10^-8 M): 0.5
- reporter gene expression (TGFβ-3 promoter [2]; 10^-9 M): 0.6

Molecule: O=C(c1ccc(O)cc1)c1sc2ccc(O)cc2c1-c1ccccc1 [LY112676, (p-hydroxyphenyl) 5-hydroxy-3-phenylbenzo[B]thien-2-yl ketone]
- in vivo uterotropic activity (in words) (uterotropic activity): uterotropic
- reporter gene expression (TGFβ-3 promoter [2]; 10^-5 M): 3.8
- reporter gene expression (TGFβ-3 promoter [2]; 10^-6 M): 1.7
- reporter gene expression (TGFβ-3 promoter [2]; 10^-7 M): 0.5
- reporter gene expression (TGFβ-3 promoter [2]; 10^-8 M): 0.6
- reporter gene expression (TGFβ-3 promoter [2]; 10^-9 M): 0.6

Molecule: O=C(c1ccc(OCCN2CCCC2)cc1)c1c(-c2ccc(O)cc2)sc2ccccc12 [LY113526, 2-(p-hydroxyphenyl)benzo[B]thien-3-YL p-[2-(1-pyrrolidinyl)ethoxy]phenyl ketone]
- in vivo uterotropic activity (in words) (uterotropic activity): anti-uterotropic
- reporter gene expression (TGFβ-3 promoter [2]; 10^-5 M): 2.1
- reporter gene expression (TGFβ-3 promoter [2]; 10^-6 M): 2.0
- reporter gene expression (TGFβ-3 promoter [2]; 10^-7 M): 0.6
- reporter gene expression (TGFβ-3 promoter [2]; 10^-8 M): 0.7
- reporter gene expression (TGFβ-3 promoter [2]; 10^-9 M): 0.7

Molecule: COc1ccc(C2=C(C(=O)c3ccc(OCCN4CCCC4)cc3)c3ccccc3CC2)cc1 [LY133314, [3,4-dihydro-2-(4-methoxyphenyl)-1-naphthanlenyl][4-[2-(1-pyrrolidinyl)ethoxy]phenyl]methanone, methanesulfonic acid salt]
- in vivo uterotropic activity (in words) (uterotropic activity): uterotropic
- reporter gene expression (TGFβ-3 promoter [2]; 10^-5 M): 1.0
- reporter gene expression (TGFβ-3 promoter [2]; 10^-6 M): 6.6
- reporter gene expression (TGFβ-3 promoter [2]; 10^-7 M): 3.1
- reporter gene expression (TGFβ-3 promoter [2]; 10^-8 M): 0.7
- reporter gene expression (TGFβ-3 promoter [2]; 10^-9 M): 0.7

Molecule: O=C(c1ccc(OCCN2CCCCCC2)cc1)c1c(-c2ccc(O)cc2)sc2cc(O)ccc12 [LY139482, [4-[2-(hexahydro-1H-azepin-1-yl)ethoxy]phenyl][6-hydroxy-2-(4-hydroxyphenyl)benzo[B]thien-3-yl]methanone]
- in vivo uterotropic activity (in words) (uterotropic activity): anti-uterotropic
- reporter gene expression (TGFβ-3 promoter [2]; 10^-5 M): 2.0
- reporter gene expression (TGFβ-3 promoter [2]; 10^-6 M): 2.5
- reporter gene expression (TGFβ-3 promoter [2]; 10^-7 M): 2.7
- reporter gene expression (TGFβ-3 promoter [2]; 10^-8 M): 2.5
- reporter gene expression (TGFβ-3 promoter [2]; 10^-9 M): 0.8

Molecule: CC(C)(C)C(=O)Oc1ccc(-c2sc3cc(OC(=O)C(C)(C)C)ccc3c2C(=O)c2ccc(OCCN3CCCCC3)cc2)cc1 [LY177366, [6-(2,2-dimethyl-1-oxopropoxy)-2-[4-(2,2-dimethyl-1-oxopropoxy)phenyl]benzo[B]thien-3-yl][4-[2-1-piperidinyl)ethoxy]phenyl]methanone hydrochloride]
- in vivo uterotropic activity (in words) (uterotropic activity): anti-uterotropic
- reporter gene expression (TGFβ-3 promoter [2]; 10^-5 M): 6.1
- reporter gene expression (TGFβ-3 promoter [2]; 10^-6 M): 7.9
- reporter gene expression (TGFβ-3 promoter [2]; 10^-7 M): 10.2
- reporter gene expression (TGFβ-3 promoter [2]; 10^-8 M): 7.9
- reporter gene expression (TGFβ-3 promoter [2]; 10^-9 M): 1.1
- induction of reporter gene expression (in words) (TGFβ-3 promoter [2]): most potent inducer

Molecule: CC/C(=C(\c1ccc(O)cc1)c1ccc(OCCN(C)C)cc1)c1ccccc1 [hydroxytamixofen]
- binding of estrogen receptor complex to estrogen responsive elements (in words) [3]: bind in vitro to DNA binding domains called estrogen responsive elements

Molecule: O=C(c1ccc(OCCN2CCCCC2)cc1)c1c(-c2ccc(O)cc2)sc2cc(O)ccc12 [raloxifene]
- ED50 (in words) (TGFβ-3 promoter [1]; MG63 cells): nanomolar concentrations

Molecule: CC/C(=C(\c1ccccc1)c1ccc(OCCN(C)C)cc1)c1ccccc1 [tamoxifen]
- CAT activity (TGFβ-3 promoter [1]; 10^-5 M): 13.5
- CAT activity (TGFβ-3 promoter [1]; 10^-6 M): 2.9
- CAT activity (TGFβ-3 promoter [1]; 10^-7 M): 0.98
- CAT activity (TGFβ-3 promoter [1]; 10^-8 M): 1.2
- CAT activity (TGFβ-3 promoter [1]; 10^-9 M): 0.91
- TGFβ-3 promoter activation (in words) (TGFβ-3 promoter [1]; MG63 cells): activates the TGFβ-3 promoter only at high levels (i.e., greater than micromolar)
- bone density (in words) [4]: appear to be restricted to the lumbar spine, with bone loss being reported in the radius in some breast cancer patients
- bone density (in words) ([4]; listed as Tamoxifen): increase bone density in breast cancer patients
- serum cholesterol (in words) ([4]; healthy women and women with breast cancer): reduce the growth the serum cholesterol
- growth of breast tumors (in words) ([4]; human, in vivo): reduce the growth of breast tumors
- serum concentration of LDLs (in words) ([4]; human, in vivo): reduce serum concentration of LDLs
- weight gain (in words) ([4]; post-menopausal women): contribute to weight gain
- TGFβ secretion (in words) [5]: induce human fetal fibroblasts to secrete TGFβ
- fold induction at 0.1 µM (TGFβ-3 promoter [6]; [12]): 2.6
- Act. (relative CAT activity) (TGFβ-3 promoter [6]; TGFβ-3 promoter, 10 μl of 10^-4 M in 10 ml medium, 24 h, control 0.7): 1.9
- induction of extracellular TGFβ-1 (in words) (TGFβ-1): correlated with induction of extracellular TGFβ-1
- fold induction at 0.1 µM (TGFβ-2 promoter; [12]): 2.6
- Act. (relative CAT activity) (TGFβ-2 promoter; TGFβ-2 promoter, 10 μl of 10^-4 M in 10 ml medium, 24 h, control 0.8): 2.0
- fold induction at 0.1 µM (TGFβ-1 promoter; [12]): 1.1
- Act. (relative CAT activity) (TGFβ-1 promoter; TGFβ-1 promoter, 10 μl of 10^-4 M in 10 ml medium, 24 h, control […]): 6.9
- TGFβ-2 mRNA expression (in words) (TGFβ-2 mRNA): did not exhibit the same effect

Molecule: CN(C)CCOc1ccc(/C(=C(/CCCl)c2ccccc2)c2ccccc2)cc1 [toremifene]
- TGFβ secretion (in words) [5]: induce human fetal fibroblasts to secrete TGFβ

Molecule: TGFβ
- mitogenic effect (in words) [7]: mitogenic
- cell growth, biosynthesis and chemotaxis (in words) [8]: inhibits the growth of mesenchymal cells and epithelial cells; also recorded: induces biosynthesis of proteoglycans, fibronectins and plasminogen activator; also recorded: chemotactic for fibroblasts, macrophages and smooth muscle cells
- bone formation / osteoclast effects (in words) [9]: stimulate osteoblastic bone formation and to inhibit osteoclast formation and osteoclast activities
- cell division (in words) [10]: repressed division

Molecule: TGFβ-3: isoform of transforming growth factor β
- mitogenesis, collagen synthesis and alkaline phosphatase activity (in words) [11]: three to five fold higher rate than TGFβ-1

Molecule: p-hydroxyphenyl3-(-hydroxyphenyl)benzo[B]thien-2-yl ketone [LY98005]
- in vivo uterotropic activity (in words) (uterotropic activity): inert in vivo
- reporter gene expression (TGFβ-3 promoter [2]; 10^-5 M): 0.5
- reporter gene expression (TGFβ-3 promoter [2]; 10^-6 M): 0.4
- reporter gene expression (TGFβ-3 promoter [2]; 10^-7 M): 0.5
- reporter gene expression (TGFβ-3 promoter [2]; 10^-8 M): 0.5
- reporter gene expression (TGFβ-3 promoter [2]; 10^-9 M): 0.4
- induction of reporter gene expression (in words) (TGFβ-3 promoter [2]): no induction
